Laboratory results from patent publication US11149064B2, “Vasoactive polypeptides for smooth muscle relaxation” (Vanderbilt University, priority 2016, dated 2021).
Entries after “also recorded” stand apart in the source; their conditions may differ. Non-standard residues stand in square brackets, D forms with d. No end group written: not given here. *: point of attachment. Palmitoyl = CCCCCCCCCCCCCCCC(=O)*; pS = N[C@@H](COP(=O)(O)O)C(=O)O

What was measured:
[1] = tested on: rat aortic smooth muscle; assay: Vasorelaxation of pre-contracted, endothelium-denuded rat aortic rings in a muscle bath; assay type: cell-based; conditions: for relaxation of rat aortic smooth muscle: phenylephrine-precontracted, endothelium-denuded rat aorta, escalating doses of polypeptide 0.1 to 1.0 mM (FIG. 2); for potency in vasorelaxation after chemical or formulatory modification of VASP1: compared with VASP1 (FIGS. 6 and 7)
Method: (§1) Freshly isolated rat aorta denuded of endothelium were suspended in a muscle bath and force generated were recorded. Phenylephrine-precontracted tissues were treated with either sodium nitroprusside (1 nM) or escalating doses of the polypeptides indicated (0.1 to 1.0 mM). Contractile response was defined by stress, which was calculated using the force generated by the tissues. [10^5 Newtons (N)/m^2]−force (g)×0.0987/area, where area is equal to the wet weight [(mg)/length (mm at maximal length)] divided by 1.055). Percent relaxation were determined as a change to the maximal phenylephrine-induced contraction. Data are reported as mean responses±standard error of the mean. n=3-17.
FIGS. 4A and B show graphs illustrating the effects of nimodipine on polypeptide induced vasorelaxation in phenylephrine precontracted rat aortic smooth muscle. Freshly isolated rat aorta denuded of endothelium were suspended in a muscle bath and force generated were recorded. Phenylephrine-precontracted tissues were treated either with escalating doses of the calcium channel blocker nimodipine (NIMO; 0.01 to 1 uM), the VASP1 polypeptide (0.1 to 1.0 mM), nimodipine (0.1 μM) followed by the VASP1 polypeptide (0.25 mM) [NIMO/VASP1], the VASP1 polypeptide (0.25 mM) followed by nimodipine (0.1 μM) [VASP1/NIMO], or simultaneous addition of nimodipine (0.1 μM) plus the VASP1 polypeptide (0.25 mM) [NIMO+VASP1]. Contractile response was defined by stress, which was calculated using the force generated by the tissues. [10^5 Newtons (N)/m^2]=force (g)×0.0987/area, where area is equal to the wet weight [(mg)/length (mm at maximal length)] divided by 1.055). (A) Percent relaxation were determined as a change to the maximal phenylephrine-induced contraction. Data are reported as mean responses±standard error of the mean. n=3-4. (B). Representative tracings of force generated in response to phenylephrine, nimodipine and the VASP1 polypeptides.
Freshly isolated rat aorta denuded of endothelium were suspended in a muscle bath and force generated were recorded. (A) Endothelin 1 (ET)-precontracted tissues were treated either with escalating doses of the calcium channel blocker nimodipine (NIMO; 0.001 to 0.1 uM), the VASP1 polypeptide (0.1 to 1.0 mM). (B) ET-precontracted tissues were treated with VASP1 polypeptide alone (0.25 mM), nimodipine alone (0.01 or 0.1 uM), nimodipine (0.01 or 0.1 uM) followed by the VASP1 polypeptide (0.25 mM), [NIMO/VASP1], the VASP1 polypeptide (0.25 mM) followed by nimodipine (0.01 or 0.1 uM), [VASP1/NIMO], or simultaneous addition of nimodipine (0.1 uM) plus the VASP1 polypeptide (0.25 mM) [NIMO+VASP1]. Contractile response was defined by stress, which was calculated using the force generated by the tissues. [10^5 Newtons (N)/m^2]=force (g)×0.0987/area, where area is equal to the wet weight [(mg)/length (mm at maximal length)] divided by 1.055). (A) Percent relaxation were determined as a change to the maximal phenylephrine-induced contraction. Data are reported as mean responses±standard error of the mean. n=2-12.
as §1, with “bath,” for “bath”, “polypeptides or polypeptide-containing nanoparticles” for “polypeptides”, “(N)/m^2]=force” for “(N)/m^2]−force”, “n=2-6.” for “n=3-17.”
Freshly isolated rat aorta denuded of endothelium were suspended in a muscle bath and force generated were recorded. […]

[2] = tested on: airway smooth muscle; assay: Relaxation of carbachol-precontracted porcine bronchial rings in a muscle bath; assay type: cell-based; conditions: polypeptides 0.1 to 1.0 mM (FIG. 8)
Method: (§2) Bronchial rings were isolated from fresh porcine lung, suspended in a muscle bath, and force generated were recorded. Carbachol-precontracted tissues were treated with escalating doses of the polypeptides indicated (0.1 to 1.0 mM). Contractile response was defined by stress, which was calculated using the force generated by the tissues. [10^5 Newtons (N)/m^2]=force (g)×0.0987/area, where area is equal to the wet weight [(mg)/length (mm at maximal length)] divided by 1.055). Percent relaxation were determined as a change to the maximal carbachol-induced contraction. Data are reported as mean responses±standard error of the mean. n=2-4.
as §2, with “Freshly isolated porcine bronchial” for “Bronchial”, “were” for “were isolated from fresh porcine lung,”, “bath.” for “bath, and force generated were recorded.”, “with” for “with escalating doses of”, “alone (−nife) or 0.1 uM nifedipine followed by the polypeptides (+nife).” for “indicated (0.1 to 1.0 mM).”, “n=1-2.” for “n=2-4.”
Bronchial rings were suspended in the muscle bath and equilibrated for 3 hours at a basal tension of 1 gram. Rings were then contracted with the agonist carbachol (150 nM) and then relaxed with cumulative doses of the polypeptides (0.1 to 1.0 mM).
Porcine bronchial rings were suspended in the muscle bath. Tissues were treated with channel blocker alone, polypeptide alone, or in combination. The results of these study are illustrated in FIG. 9.
Rat aortae were isolated from euthanized female Sprague-Dawley rats. Porcine bronchial rings were isolated from lung obtained from euthanized female Yorkshire pigs.

[3] = phenylephrine or endothelin-1 pre-contracted rat aortic rings

| Substance | relaxation of rat aortic smooth muscle [1] | relaxation of airway smooth muscle [2] | also measured |
| --- | --- | --- | --- |
| IRQTADRWRVSLDVNLTVK [SEQ ID NO: 4, peptide analogue of HSP27] | directly cause smooth muscle relaxation | directly cause smooth muscle relaxation | – |
| KLRKV(pS)K (KLRKV[pS]K) [SEQ ID NO: 9, control peptide without transduction domain] | do not directly cause relaxation; also recorded: exception | – | – |
| KLRKV(pS)KLTVK (KLRKV[pS]KLTVK) [SEQ ID NO: 8, phosphopeptide analogue of VASP] | directly cause smooth muscle relaxation | directly cause smooth muscle relaxation | – |
| YARAAARQARAA(pS)GVAVSDG (YARAAARQARAA[pS]GVAVSDG) [SEQ ID NO: 1, phosphopeptide analogue of cofilin] | directly cause smooth muscle relaxation | directly cause smooth muscle relaxation | – |
| YARAAARQARAA(pS)GVTVSDEVI (YARAAARQARAA[pS]GVTVSDEVI) [SEQ ID NO: 2, phosphopeptide analogue of cofilin] | directly cause smooth muscle relaxation | directly cause smooth muscle relaxation | – |
| YARAAARQARAIRQTADRWRVSLDVN [SEQ ID NO: 3, peptide analogue of HSP27] | directly cause smooth muscle relaxation | directly cause smooth muscle relaxation | – |
| YARAAARQARAK(pS)RVLKK (YARAAARQARAK[pS]RVLKK) [SEQ ID NO: 10, control peptide] | do not directly cause relaxation | – | relaxation of rat aortic smooth muscle ([1]; listed as scrVASP1): exception |
| YARAAARQARAKLRKV(pS)K (YARAAARQARAKLRKV[pS]K) [SEQ ID NO: 5, phosphopeptide analogue of VASP] | directly cause smooth muscle relaxation | directly cause smooth muscle relaxation | vasorelaxation in combination with calcium channel blocker nimodipine ([1]; phenylephrine or endothelin-1 pre-contracted rat aortic rings, VASP1 0.25 mM with nimodipine 0.01 or 0.1 uM (FIGS. 4A-5B)): works in concert with calcium channel blocker, nimodipine, to enhance vasorelaxation; relaxation of rat aortic smooth muscle ([1]; listed as VASP1): sequence specific |
| YARAAARQARAKLRKV(pS)KQEEA (YARAAARQARAKLRKV[pS]KQEEA) [SEQ ID NO: 6, phosphopeptide analogue of VASP] | directly cause smooth muscle relaxation | directly cause smooth muscle relaxation | – |
| YARAAARQARAKLRKV(pS)KQEEASG (YARAAARQARAKLRKV[pS]KQEEASG) [SEQ ID NO: 7, phosphopeptide analogue of VASP] | directly cause smooth muscle relaxation | directly cause smooth muscle relaxation | – |
| YARAAARQARA{K(palm)}GGKLRKV(pS)K (YARAAARQARAK(Palmitoyl)GGKLRKV[pS]K) [SEQ ID NO: 12] | – | – | potency in vasorelaxation after chemical or formulatory modification of VASP1 [1, 3]: directly cause smooth muscle relaxation with enhanced potency |
| YARAAARQARA{K(palm)}LRKV(pS)K (YARAAARQARAK(Palmitoyl)LRKV[pS]K) [SEQ ID NO: 11] | – | – | potency in vasorelaxation after chemical or formulatory modification of VASP1 [1, 3]: directly cause smooth muscle relaxation with enhanced potency |
